Data from patent US8735439B2, “Chlorin e6-folic acid conjugate, preparation method thereof, and a pharmaceutical composition for the treatment of cancer comprising the same” (Diatech Korea Co., Ltd., priority 2009, dated 2014).
Values joined by “and” are separate entries in the source; they are usually repeats but may differ in a detail not shown here. Identical values can stand only once.

What was measured:
Hela cells [1] = test: Accumulation in Hela cells; type: cell-based; details: for concentration in Hela cells: 2×10^−5 M/l, 37° C.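 On concentration in Hela cells: measured as suspension fluorescence intensity at excitation 405 nm and emission 665 nm.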
Method: The cellular accumulation and the targeted delivery of the photoactive compounds were investigated using Hela cells, which is one of the numerous tumor cell types that overexpress folate receptors.
Cells were cultivated for 3 days in medium 199, and transferred to Hank's solution/medium 199 (9/1). After 3 hours, the cell were collected by trypsin treatment from the substrate and placed in Hank's solution (10^5 ? /ml). To cell suspensions, chlorin e6 conjugates were added at a concentration of 2×10^−5 M/l, and incubated at 37° C. After 1, 5, 10, 15, and 24 hours, the samples were centrifuged, the pellet was washed with the cooled Hank's solution, and transferred to Hank's solution at a concentration being equal to that in the initial suspension.

[2] = Quenching of excited triplet states by molecular oxygen; type: physicochemical
From the text: The data presented in Table 2 supports the analysis of specific features of quenching of excited triplet states of chlorin e6-conjugate by molecular oxygen in solutions and biological systems.

HeLa cell culture = test: Phototoxicity (photodynamic activity), 3.5 h incubation, 3.3 joule/cm^2; type: cell-based; set-up: number of HELA cells relative to the control: unit not given here; details: photoexposure 3.3 joule/cm^2; for number of HELA cells relative to the control: 3.5 hours incubation
Method: To examine the photodynamic effects of a photosensitizer on a HeLa cell culture, the photosensitizer solution was added to the nutrient media at a final concentration of 0.1, 0.5, 1.0, 5.0 or 10 mcg/ml on day 3 after transplanting the cell culture into flasks. The flasks were wrapped with a light protecting cover, and incubated at 37° C. for 3.5 hours. Then, the cells were washed with Hank's solution, and exposed on ice by a laser medical device “LD 680-2000” (wavelength: 670-690 nm) at a dose of 3.3 joule/cm^2. After 20-24 hours, the available cell monolayer was dispersed using a 0.02%-Versene solution, and the number of tumor cells was calculated in Goriaev's chamber. For each point, 3 flasks were used.

Hela cells [3] = test: Phototoxicity, 24 h incubation, 1.5-15 joule/cm^2; type: cell-based; details: 670-690 nm
Method: In other experiment, the cells were incubated with photosensitizers at 37° C. for 24 hours, and irradiated by exposed on ice by a laser medical device “LD 680-2000” (wavelength of 670-690 nm) in a dose of 1.5-15 joule/cm^2.

human serum albumin = human serum albumin (Homo sapiens, UniProt P02768); test: Pigment-protein complex formation with human serum albumin; details: HSA, number of binding positions n=1
From the text: Pigment-protein complexes have been formed by adding to the solution of human serum albumin (HAS) a specific amount of photosensitizer dissolved in the same buffer. […] Similarly, the photosensitizer was included in detergent micelle (Triton X-100, C=10^−3M).
wherein r and C are the respectively concentrations of bound and unbound protein pigment, r+C=CΣ. […] It is also applicable with respect to pigment molecules included in Triton X-100 micelle.

sarcoma M-1 [4] = test: Necrotic area in sarcoma M-1 after PDT; type: in vivo, rats; details: for Necrotic area / Ratio of necrotic area to total area: PDT 100 J/cm^2 at 4 hours, mean of 25 slides
Method: 2 hours later the animals were killed by chloroform, the tumor was excised and fixed for one hour in 10%-HOM formalin. After fixation, transverse sections of the tumor nodule in its highest diameter were made, and pictures were taken by a camera connected to a computer.
For quantitative assessment of necroses formed after PDT, computer analysis of color tints of histo-topographic tumor slides was performed using a special program.
The program included an algorithm of blue color identification (Evans blue), which stained viable areas of the tumor. Tumor areas killed from direct cytotoxic effect or due to structural-functional disorders of microcirculation were not stained in blue. The ratio of all non-stained dots to the total amount of dots in the fence of the tumor slide was considered to be the destruction efficiency.
For this purpose, a laser medical instrument “ ? 680-2000” (BIOSPEC, Moscow) was used to perform the exposure at a wavelength of 670 nm in a dose of 100 J/cm^2. The power density was 0.51 W/cm^2, the output power was 0.4 W, and the spot light diameter was 1 cm. Time of exposure was […]. Monitoring over radiating power was conducted by a universal power meter included in the laser device “ ? 4680-2000”.

sarcoma M-1 [5] = test: Accumulation kinetics of photosensitizer in rats with sarcoma M-1; type: in vivo; details: rats with sarcoma M-1, 5.0 mg/kg
Method: The experiments were conducted on 100 white outbred rats with subcutaneous transplantation of sarcoma M-1, 7-9 days after tumor transplant. Photosensitizers were introduced to the animals via an intravenous route, once at a dose of 2.5, 5.0 and 10.0 mg/kg in a room with a low level of light. A sterile isotonic solution of sodium chloride was used as a solvent. Follow up over the dynamics of photosensitizer accumulation in tumor and normal tissues was conducted at 30 mins, 1-5 hours, and 1-6 days after photosensitizer administration.
In tumor tissues of rats with sarcoma M-1 and normal tissues (skin of opposite haunch), the dynamics of photosensitizer accumulation was analyzed by the method of measurement of life time using computer fluorescent spectrophotometry. For this purpose, a laser-fiber spectroanalyzer “LESA-6” with a helium-neon diagnostic laser “LHN 633-25” (BIOSPEC, Moscow) was used. This allows an estimate locally of the level of photosensitizer accumulation in any organs and tissues accessible for an optical fiber probe.
For real time monitoring at every hour after administration of the drug, the distal end of a catheter was placed over the tumor and normal tissues, and the intensity of the drug accumulation was recorded on the wave length corresponding to maximum fluorescence. […]

Chain of human serum albumin (P02768 25-609): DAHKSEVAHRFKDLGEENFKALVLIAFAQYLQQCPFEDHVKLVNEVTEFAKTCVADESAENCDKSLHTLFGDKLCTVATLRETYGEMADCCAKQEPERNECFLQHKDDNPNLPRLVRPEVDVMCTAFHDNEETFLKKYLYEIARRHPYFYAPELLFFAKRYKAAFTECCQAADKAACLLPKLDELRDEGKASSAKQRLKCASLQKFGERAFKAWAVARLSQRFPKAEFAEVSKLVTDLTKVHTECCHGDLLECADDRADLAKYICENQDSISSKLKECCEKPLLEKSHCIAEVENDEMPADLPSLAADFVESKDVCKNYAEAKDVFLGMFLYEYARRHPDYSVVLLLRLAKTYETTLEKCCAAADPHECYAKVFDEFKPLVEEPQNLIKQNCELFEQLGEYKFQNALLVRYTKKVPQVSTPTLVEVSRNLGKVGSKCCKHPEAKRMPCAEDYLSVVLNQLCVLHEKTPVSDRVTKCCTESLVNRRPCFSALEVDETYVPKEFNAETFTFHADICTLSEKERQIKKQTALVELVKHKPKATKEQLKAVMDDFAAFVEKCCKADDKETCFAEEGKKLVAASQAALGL

[γ-(6-aminohexyl)folic acid]-chlorin e6 [chlorin e6 conjugate]
binding with cells over time (Hela cells [1]; Hela cells): increases linearly over 20 hours | accumulation compared with cellular uptake of free chlorin e6 (Hela cells [1]; Hela cells, after 6 hr incubation): distinctly higher | cellular uptake relative to free chlorin e6 (Hela cells [1]; Hela cells, after 24 hr incubation, on average, listed as chlorin e6-folic acid conjugate): about 10 fold | concentration in Hela cells (Hela cells [1]; incubation 1 hour): 0.40 relative units/10^4 cl. | concentration in Hela cells (Hela cells [1]; incubation 5 hours): 1.80 relative units/10^4 cl. | concentration in Hela cells (Hela cells [1]; incubation 10 hours): 2.50 relative units/10^4 cl. | concentration in Hela cells (Hela cells [1]; incubation 15 hours): 12.5 relative units/10^4 cl. | concentration in Hela cells (Hela cells [1]; incubation 24 hours): 15.0 relative units/10^4 cl. | bi-molecular rate constant for O2 quenching of the triplet excited state ([2]; Pyridine): 4.5×10^9 M^−1 c^−1 | bi-molecular rate constant for O2 quenching of the triplet excited state ([2]; buffer solution): 1.5×10^9 M^−1 c^−1 | bi-molecular rate constant for O2 quenching of the triplet excited state ([2]; lipid bilayer): 9×10^9 M^−1 c^−1 | bi-molecular rate constant for O2 quenching of the triplet excited state ([2]; micellar complex (Triton X-100), upper limit): 1.5×10^9 M^−1 c^−1 | bi-molecular rate constant for O2 quenching of the triplet excited state ([2]; pigment-protein complex, upper limit): 2.5×10^9 M^−1 c^−1 | number of HELA cells relative to the control (HeLa cell culture; 0.1 mcg/ml): 65.1 | number of HELA cells relative to the control (HeLa cell culture; 0.5 mcg/ml): 42.3 | number of HELA cells relative to the control (HeLa cell culture; 1.0 mcg/ml): 12.6 | inhibition of proliferation of Hela cells (HeLa cell culture; 5-10 mcg/ml): fully inhibited the proliferation | number of HELA cells relative to the control (HeLa cell culture; 5.0 mcg/ml): 0.1 | phototoxicity in survival test (Hela cells [3]): improved the photosensitivity | binding constant κCB with protein (human serum albumin): 1.2e+06 M⁻¹ | Necrotic area (sarcoma M-1 [4]; 2.5 mg/kg): 0.637 cm^2 | Ratio of necrotic area to total area (sarcoma M-1 [4]; 2.5 mg/kg): 25.56±1.65% and 25.56% | Necrotic area (sarcoma M-1 [4]; 5.0 mg/kg): 0.741 cm^2 | Ratio of necrotic area to total area (sarcoma M-1 [4]; 5.0 mg/kg): 34.16±2.16% and 34.16% | anti-tumor effect compared among dose and exposure groups (sarcoma M-1 [4]; 10.0 mg/kg, 1 hr exposure): most prominent anti-tumor effect | Necrotic area (sarcoma M-1 [4]; 10.0 mg/kg): 1.205 cm^2 | Ratio of necrotic area to total area (sarcoma M-1 [4]; 10.0 mg/kg): 66.16±3.83% and 66.16% | Ratio of necrotic area to total area (sarcoma M-1 [4]; 10.0 mg/kg, listed as chlorin e6-folic acid conjugate): 66.16% | time of maximum accumulation in tumor tissue (sarcoma M-1 [5]): 2 to 5 h
